Source: patent publication US8476265B2, “Compounds-801” (AstraZeneca AB, priority 2010, dated 2013)

How the values were obtained:
Adrenergic β2 [1] = target: T1, Adrenergic β2 (Homo sapiens, UniProt P07550); experiment: Adrenergic β2 mediated cAMP production in H292 cells (AlphaScreen), concentration response; type: cell-based; conditions: for EC50: 60 min, 300 μM rolipram, read-out: β2 pEC50 (converted); for β2 Intrinsic Activity: fraction relative to the maximum activity determined for formoterol
T1 construct: Adherent H292 cells are removed from tissue culture flasks by treatment with Accutase™ cell detachment solution; endogenous in cells; host or cells: H292 cells
T1 sequence (P07550 whole entry): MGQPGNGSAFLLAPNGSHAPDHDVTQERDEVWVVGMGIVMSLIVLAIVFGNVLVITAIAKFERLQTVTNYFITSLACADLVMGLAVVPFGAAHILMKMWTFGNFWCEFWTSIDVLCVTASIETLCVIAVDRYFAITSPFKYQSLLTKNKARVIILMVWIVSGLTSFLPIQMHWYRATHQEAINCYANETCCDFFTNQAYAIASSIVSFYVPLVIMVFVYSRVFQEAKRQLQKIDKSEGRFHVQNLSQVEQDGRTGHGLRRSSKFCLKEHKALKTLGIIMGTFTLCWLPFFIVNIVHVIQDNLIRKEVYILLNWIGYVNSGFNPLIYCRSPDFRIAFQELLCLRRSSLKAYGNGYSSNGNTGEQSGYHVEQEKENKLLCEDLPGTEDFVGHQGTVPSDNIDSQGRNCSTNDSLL
Method in brief: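 Intracellular cAMP in lysates read by AlphaScreen, calibrated with cAMP standards; curves fitted for pEC50, with intrinsic activity as a fraction of formoterol's maximum. Agonist exposure 60 min at room temperature after 10 min rolipram (300 μM final), 1% DMSO, HEPES-buffered HBSS pH 7.4.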

Adrenergic β2 [2] = target: T1, Adrenergic β2; experiment: Adrenergic β2 mediated cAMP production in H292 cells, single concentration 1 μM; type: cell-based; conditions: NCI-H292, 1 μM compound, cAMP as percentage of the maximum response generated by 1E-07M formoterol, read-out: β2 % effect @1 uM
Method in brief: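 H292 cells pretreated with rolipram (300 μM final) 10 min, then compound at 1 μM final, 1% DMSO, 60 min at room temperature in HBSS/10 mM HEPES pH 7.4/5 mM glucose. Lysate cAMP quantified by AlphaScreen against a standard curve, as % of maximal response to 1E-07M formoterol.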

[3] = target: T2, human muscarinic acetylcholine M3 receptor (Homo sapiens, UniProt P20309); experiment: Muscarinic 3 receptor binding assay ([3H]NMS competition, SPA), single concentration 1 μM; conditions: 1 μM compound; % inhibition specific [3H]-NMS binding
T2 construct: expressed in transfected cells; host or cells: CHO-K1 (Chinese Hamster Ovary) cell membranes
T2 sequence (P20309 whole entry): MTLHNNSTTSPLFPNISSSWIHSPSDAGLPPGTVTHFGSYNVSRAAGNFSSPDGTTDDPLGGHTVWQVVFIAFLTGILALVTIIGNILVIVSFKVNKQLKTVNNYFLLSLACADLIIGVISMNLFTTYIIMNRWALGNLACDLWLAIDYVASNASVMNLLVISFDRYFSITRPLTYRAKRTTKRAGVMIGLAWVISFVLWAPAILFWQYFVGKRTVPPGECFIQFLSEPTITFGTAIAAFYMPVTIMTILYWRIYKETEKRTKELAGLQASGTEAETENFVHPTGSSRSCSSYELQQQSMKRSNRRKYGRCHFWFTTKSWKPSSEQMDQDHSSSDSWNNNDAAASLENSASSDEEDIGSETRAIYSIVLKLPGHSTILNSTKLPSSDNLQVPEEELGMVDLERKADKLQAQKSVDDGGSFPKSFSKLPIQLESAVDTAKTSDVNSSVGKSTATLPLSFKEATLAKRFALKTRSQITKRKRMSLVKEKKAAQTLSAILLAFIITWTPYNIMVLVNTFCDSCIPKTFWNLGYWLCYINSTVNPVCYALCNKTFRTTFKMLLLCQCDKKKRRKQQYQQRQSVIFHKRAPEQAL
Method in brief: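 CHO-K1 membranes expressing human M3 on SPA beads, competition with 0.1 nM [3H]NMS (quarter Kd) in 20 mM HEPES pH 7.4, 5 mM MgCl2, 0.1% BSA, 1% DMSO; compound at 1 μM. 16 h at room temperature. Value is % inhibition of specific binding, non-specific defined with 1 μM atropine.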

[4] = target: T2, human muscarinic acetylcholine M3 receptor; experiment: Muscarinic 3 receptor binding assay ([3H]NMS competition, SPA), pIC50; conditions: [3H]NMS 0.1 nM, CHO-K1 cell membranes expressing human M3 receptor
Method in brief: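 SPA beads precoated with human M3-expressing CHO-K1 membranes were incubated 16 h at room temperature with serially diluted compound and 0.1 nM [3H]NMS (pH 7.4 HEPES buffer, MgCl2, BSA, 1% DMSO). Atropine (1 μM) defined non-specific binding; pIC50 is the 50% reduction in specific binding.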

Structure (SMILES) | EC50 (Adrenergic β2 [1]) [nM] | β2 Intrinsic Activity (Adrenergic β2 [1]) | percent of formoterol maximum response at 1 µM (Adrenergic β2 [2]) [%] | inhibition at 1 µM [3] [%] | IC50 [4] [nM]
O=C1COc2c(CCNCCN(C(=O)CCOCCc3cccc(CN4CCC5(CC4)CN(C(=O)c4ccc(Cl)s4)CCO5)c3)C3CCCCC3)ccc(O)c2N1 [Example 106, 3-(3-((4-(5-Chlorothiophene-2-carbonyl)-1-oxa-4,9-diazaspiro[5.5]undecan-9-yl)methyl)phenethoxy)-N-cyclohexyl-N-(2-(2-(5-hydroxy-3-oxo-3,4-dihydro-2H-benzo[b][1,4]oxazin-8-yl)ethylamino)ethyl)propanamide] | 50.1 | 1.0 | 102 | 100 | 0.631
O=C1COc2c(CCNCCN(C(=O)CCOCCc3cccc(CN4CCC5(CC4)CN(C(=O)C4COc6ccccc6O4)CCO5)c3)C3CCCCC3)ccc(O)c2N1 (centres unmarked) [Example 115, N-Cyclohexyl-3-(3-((4-(2,3-dihydrobenzo[b][1,4]dioxine-2-carbonyl)-1-oxa-4,9-diazaspiro[5.5]undecan-9-yl)methyl)phenethoxy)-N-(2-(2-(5-hydroxy-3-oxo-3,4-dihydro-2H-benzo[b][1,4]oxazin-8-yl)ethylamino)ethyl)propanamide] | 126 | 0.6 | 93 | 100 | 0.158
O=C1COc2c(CCNCCN(C(=O)CCOCCc3cccc(CN4CCC5(CC4)CN(C(=O)c4cnc6ccccc6n4)CCO5)c3)C3CCCCC3)ccc(O)c2N1 [Example 119, N-Cyclohexyl-N-(2-(2-(5-hydroxy-3-oxo-3,4-dihydro-2H-benzo[b][1,4]oxazin-8-yl)ethylamino)ethyl)-3-(3-((4-(quinoxaline-2-carbonyl)-1-oxa-4,9-diazaspiro[5.5]undecan-9-yl)methyl)phenethoxy)propanamide] | 158 | >0.9 | 84 | 100 | 2
O=C1COc2c(CCNCCN(C(=O)CCOCCc3cccc(CN4CCC5(CC4)CN(C(=O)C(O)c4ccccc4Cl)CCO5)c3)C3CCCCC3)ccc(O)c2N1 (centres unmarked) [Example 128, 3-(3-((4-(2-(2-Chlorophenyl)-2-hydroxyacetyl)-1-oxa-4,9-diazaspiro[5.5]undecan-9-yl)methyl)phenethoxy)-N-cyclohexyl-N-(2-(2-(5-hydroxy-3-oxo-3,4-dihydro-2H-benzo[b][1,4]oxazin-8-yl)ethylamino)ethyl)propanamide] | – | – | 125 | 99 | 1
Cc1csc(C(=O)N2CCOC3(CCN(Cc4cccc(CCOCCC(=O)N(CCNCCc5ccc(O)c6c5OCC(=O)N6)C5CCCCC5)c4)CC3)C2)c1 [Example 138, N-Cyclohexyl-N-(2-(2-(5-hydroxy-3-oxo-3,4-dihydro-2H-benzo[b][1,4]oxazin-8-yl)ethylamino)ethyl)-3-(3-((4-(4-methythiophene-2-carbonyl)-1-oxa-4,9-diazaspiro[5.5]undecan-9-yl)methyl)phenethoxy)propanamide] | 126 | 0.9 | 92 | 100 | 0.2
O=C1COc2c(CCNCCN(C(=O)CCOCCc3cccc(CN4CCC5(CC4)CN(C(=O)Cc4ccc6c(c4)OCO6)CCO5)c3)C3CCCCC3)ccc(O)c2N1 [Example 140, 3-(3-((4-(2-(Benzo[d][1,3]dioxol-5-yl)acetyl)-1-oxa-4,9-diazaspiro[5.5]undecan-9-yl)methyl)phenethoxy)-N-cyclohexyl-N-(2-(2-(5-hydroxy-3-oxo-3,4-dihydro-2H-benzo[b][1,4]oxazin-8-yl)ethylamino)ethyl)propanamide] | 200 | 1.0 | 100 | 100 | 1

Second part, the compound after the results:

EC50 (Adrenergic β2 [1]) [nM] | β2 Intrinsic Activity (Adrenergic β2 [1]) | percent of formoterol maximum response at 1 µM (Adrenergic β2 [2]) [%] | inhibition at 1 µM [3] [%] | IC50 [4] [nM] | Structure (SMILES)
39.8 | 1.0 | 100 | 100 | 0.158 | CCc1cc(C(=O)N2CCOC3(CCN(Cc4cccc(CCOCCC(=O)N(CCNCCc5ccc(O)c6c5OCC(=O)N6)C5CCCCC5)c4)CC3)C2)cs1 [Example 144, N-Cyclohexyl-3-(3-((4-(5-ethylthiophene-3-carbonyl)-1-oxa-4,9-diazaspiro[5.5]undecan-9-yl)methyl)phenethoxy)-N-(2-(2-(5-hydroxy-3-oxo-3,4-dihydro-2H-benzo[b][1,4]oxazin-8-yl)ethylamino)ethyl)propanamide]
79.4 | 0.9 | 96 | 100 | 0.398 | O=C1COc2c(CCNCCN(C(=O)CCOCCc3cccc(CN4CCC5(CC4)CN(C(=O)c4cc6ccccn6n4)CCO5)c3)C3CCCCC3)ccc(O)c2N1 [Example 146, N-Cyclohexyl-N-(2-(2-(5-hydroxy-3-oxo-3,4-dihydro-2H-benzo[b][1,4]oxazin-8-yl)ethylamino)ethyl)-3-(3-((4-(pyrazolo[1,5-a]pyridine-2-carbonyl)-1-oxa-4,9-diazaspiro[5.5]undecan-9-yl)methyl)phenethoxy)propanamide]
– | – | 103 | 92 | – | O=C1COc2c(CCNCCN(C(=O)CCOCCc3cccc(CN4CCC5(CC4)CN(C(=O)c4cccc6[nH]ccc46)CCO5)c3)C3CCCCC3)ccc(O)c2N1 [Example 168, 3-(3-((4-(1H-Indole-4-carbonyl)-1-oxa-4,9-diazaspiro[5.5]undecan-9-yl)methyl)phenethoxy)-N-cyclohexyl-N-(2-(2-(5-hydroxy-3-oxo-3,4-dihydro-2H-benzo[b][1,4]oxazin-8-yl)ethylamino)ethyl)propanamide]
– | – | 102 | 101 | – | O=C1COc2c(CCNCCN(C(=O)CCOCCc3cccc(CN4CCC5(CC4)CN(C(=O)Cc4ccccc4F)CCO5)c3)C3CCCCC3)ccc(O)c2N1 [Example 169, N-Cyclohexyl-3-(3-((4-(2-(2-fluorophenyl)acetyl)-1-oxa-4,9-diazaspiro[5.5]undecan-9-yl)methyl)phenethoxy)-N-(2-(2-(5-hydroxy-3-oxo-3,4-dihydro-2H-benzo[b][1,4]oxazin-8-yl)ethylamino)ethyl)propanamide]
– | – | 112 | 98 | – | CCOc1ccccc1CC(=O)N1CCOC2(CCN(Cc3cccc(CCOCCC(=O)N(CCNCCc4ccc(O)c5c4OCC(=O)N5)C4CCCCC4)c3)CC2)C1 [Example 170, N-Cyclohexyl-3-(3-((4-(2-(2-ethoxyphenyl)acetyl)-1-oxa-4,9-diazaspiro[5.5]undecan-9-yl)methyl)phenethoxy)-N-(2-(2-(5-hydroxy-3-oxo-3,4-dihydro-2H-benzo[b][1,4]oxazin-8-yl)ethylamino)ethyl)propanamide]
– | – | 94 | 96 | – | COC(C(=O)N1CCOC2(CCN(Cc3cccc(CCOCCC(=O)N(CCNCCc4ccc(O)c5c4OCC(=O)N5)C4CCCCC4)c3)CC2)C1)c1ccccc1 (centres unmarked) [Example 171, N-Cyclohexyl-N-(2-(2-(5-hydroxy-3-oxo-3,4-dihydro-2H-benzo[b][1,4]oxazin-8-yl)ethylamino)ethyl)-3-(3-((4-(2-methoxy-2-phenylacetyl)-1-oxa-4,9-diazaspiro[5.5]undecan-9-yl)methyl)phenethoxy)propanamide]
– | – | 94 | 91 | – | Cc1ccc2nc(C(=O)N3CCOC4(CCN(Cc5cccc(CCOCCC(=O)N(CCNCCc6ccc(O)c7c6OCC(=O)N7)C6CCCCC6)c5)CC4)C3)cn2c1 [Example 172, N-Cyclohexyl-N-(2-(2-(5-hydroxy-3-oxo-3,4-dihydro-2H-benzo[b][1,4]oxazin-8-yl)ethylamino)ethyl)-3-(3-((4-(6-methylimidazo[1,2-a]pyridine-2-carbonyl)-1-oxa-4,9-diazaspiro[5.5]undecan-9-yl)methyl)phenethoxy)propanamide]
– | – | 82 | 95 | – | COCCOc1ccc(C(=O)N2CCOC3(CCN(Cc4cccc(CCOCCC(=O)N(CCNCCc5ccc(O)c6c5OCC(=O)N6)C5CCCCC5)c4)CC3)C2)cc1 [Example 173, N-Cyclohexyl-N-(2-(2-(5-hydroxy-3-oxo-3,4-dihydro-2H-benzo[b][1,4]oxazin-8-yl)ethylamino)ethyl)-3-(3-((4-(4-(2-methoxyethoxy)benzoyl)-1-oxa-4,9-diazaspiro[5.5]undecan-9-yl)methyl)phenethoxy)propanamide]
